# Key:
# [1] = biological target: Triosephosphate isomerase (G233D HsTIM) (Homo sapiens, UniProt P60174, G233D); test: coupled enzyme assay, Kmapp vs PEP at varied GAP; type: biochemical
# [2] = biological target: Triosephosphate isomerase (WT HsTIM) (Homo sapiens, UniProt P60174); test: coupled enzyme assay, Kmapp vs PEP at varied GAP; type: biochemical
# Sequence of Triosephosphate isomerase (WT HsTIM) (P60174 2-249): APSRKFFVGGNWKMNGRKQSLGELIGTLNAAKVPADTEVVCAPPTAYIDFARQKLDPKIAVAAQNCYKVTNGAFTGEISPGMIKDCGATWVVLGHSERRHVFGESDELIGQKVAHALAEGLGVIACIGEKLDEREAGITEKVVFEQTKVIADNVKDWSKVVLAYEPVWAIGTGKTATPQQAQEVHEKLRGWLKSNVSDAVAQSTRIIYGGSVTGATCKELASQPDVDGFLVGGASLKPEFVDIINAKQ
# Sequence of Triosephosphate isomerase (G233D HsTIM) (P60174 2-249 G233D): as the sequence (P60174 2-249) above, with G232D counted along it
smiles,measurement,setting,value
C=C(OP(=O)(O)O)C(=O)O [phosphoenolpyruvate],Ki,[1],120 ± 5.2 µM
same,Ki,[2],123 ± 5 µM

# — article PMC5652080 (Current Enzyme Inhibition, 2015)
